Series [1] is described as follows: pH assessment and visual compatibility of first biocide with AMA-324 in polymer solution. It is filed as physicochemical. Particulars: for pH end: AMA-324 plus first biocide mixed 30 minutes, AMA-324 alone stirred 40 minutes; for pH after addition of first biocide: polymer solution with AMA-324 100 ppm plus first biocide 100 ppm (active), DBNPA 50 ppm; for Observations on adjusted pH solution: polymer solution with AMA-324 plus first biocide, after pH adjustment, visual appearance. The method, then:
Seven standard polymer solutions were prepared by preparing a commercially-available polyacrylamide polymer using standard methods. The polymer was added to artificial seawater formulation (approximately 27° C., with the pH adjusted to 6.5 and buffered accordingly) and the solution was mixed utilizing a magnetic stirrer to obtain 200 mL of a 300 ppm (active) polymer solution. After mixing, the initial pH of each polymer solution was measured and recorded. The pH was measured using a calibrated bench top pH meter.
After the initial pH reading, 1 mL of the AMA-324 stock solution was added to 200 mL of the polymer solution to provide 100 ppm (active) of the biocide, and mixed for 10 minutes. The pH of the solution with the AMA-324 was then measured and recorded.
Following pH measurement of the polymer solutions containing AMA-324, 1 mL of a first biocide component stock solution (as described in Table 1) was added to each polymer mixture. The concentration of the biocide stock solutions were prepared to provide 100 ppm (active) in the polymer solution, except for DBNPA which was evaluated at 50 ppm (active). The polymer solutions with the AMA-324 and the first biocide components were mixed for 30 minutes, after which the pH was again measured.
Finally, one control experiment was performed with only the addition of AMA-324 to the polymer solution, stirred for 40 minutes with no other biocide addition.

In the next series the test system is SRB. Kind of series: Planktonic biocide efficacy, MPN enumeration, SRB. Particulars: FIG. 8 versus FIG. 14. It is filed as cell-based.

“Also recorded” adds a separate entry of the source.

As for `N#CC(Br)(Br)C(N)=O` [DBNPA, 2,2-dibromo-3-nitrilopropionamide], in series [1], the pH end is given as 8.44, the “pH after addition of first biocide” value is given as 8.04 and the “Observations on adjusted pH solution” value is “some turbidity; also recorded: cloudy”.
Take “tetrakis(hydroxymethyl) phosphonium sulfate [THPS]”: the “Synergistic effect of dual biocide system with AMA-324” value with SRB was “synergistic effect”. For the same compound, in series [1], the pH end worked out at 7.13, the “pH after addition of first biocide” value is on record as 6.8 and the “Observations on adjusted pH solution” value is “clear”.
`O=CCCCC=O` [GLUT, Glutaraldehyde]: the “Synergistic effect of dual biocide system with AMA-324” value in the series on SRB is “synergistic effect”. For the same compound, in series [1], the pH end is 9.12, the “pH after addition of first biocide” value came out at 9.29 and the “Observations on adjusted pH solution” value is listed as “clear”.
Regarding “C12-16-alkyl dimethyl benzyl ammonium chloride [ADBAC quat]”, in series [1], the pH end was 9.18, the “pH after addition of first biocide” value amounted to 9.57 and the “Observations on adjusted pH solution” value is listed as “cloudy”. Also, in series [1] (listed as ADBAC Quat), the “Observations on adjusted pH solution” value is on record as “some turbidity”.

For the origin of these results see patent publication US20140303045A1, “Biocidal Systems and Methods of Use” (Kemira Oyj, priority 2013, published 2014).
